Reference: patent publication US20230123334A1, “AMINO LIPID COMPOUND, PREPARATION METHOD THEREFOR, AND APPLICATION THEREOF” (SHENZHEN SHENXIN BIOTECHNOLOGY CO., LTD., priority 2020, published 2023)

System: HEK293 cells
Experiment: Preliminary screening as DNA vectors, GFP transfection of HEK293 cells
Format: cell-based
Details: amino lipid/DOPE liposome with 75 ng plasmid DNA (psin-EGFP-IRES-Puro); number of GFP-expressing cells divided by total nuclei (Hoechst)
How it was run: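 Lipid + DOPE liposomes (NaOAc, pH 5.6) complexed w/ 75 ng psin-EGFP-IRES-Puro, 30 min RT; added to 3-5×10^4 HEK293/well, 37° C. Hoechst 0.2 μg/mL at 20-24 h, imaged after further 20-24 h. Efficiency = GFP+ cells / total nuclei.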

Structure (SMILES): CCCCCCCCCNc1nc(NCC2CCN(C)CC2)nc(SCCCCCCCCC)n1 [S9N9 D10]
- Absolute DNA transfection efficiency in HEK293 cells: 34.5%

Structure (SMILES): CCCCCCCCCCCNc1nc(NCCN(C)C)nc(SCCCCCCCCC)n1 [S9N11 D1]
- Absolute DNA transfection efficiency in HEK293 cells: 35.3%

Structure (SMILES): CCCCCCCCCCCNc1nc(NCCN2CCOCC2)nc(SCCCCCCCCC)n1 [S9N11 D2]
- Absolute DNA transfection efficiency in HEK293 cells: 16.2%

Structure (SMILES): CCCCCCCCCCCNc1nc(NCCN2CCCC2)nc(SCCCCCCCCC)n1 [S9N11 D3]
- Absolute DNA transfection efficiency in HEK293 cells: 43.4%

Structure (SMILES): CCCCCCCCCCCNc1nc(NCCN2CCCCC2)nc(SCCCCCCCCC)n1 [S9N11 D4]
- Absolute DNA transfection efficiency in HEK293 cells: 8.3%

Structure (SMILES): CCCCCCCCCCCNc1nc(NCCN2CCN(C)CC2)nc(SCCCCCCCCC)n1 [S9N11 D5]
- Absolute DNA transfection efficiency in HEK293 cells: 45.0%

Structure (SMILES): CCCCCCCCCCCNc1nc(NCCCN(C)C)nc(SCCCCCCCCC)n1 [S9N11 D6]
- Absolute DNA transfection efficiency in HEK293 cells: 55.4%

Structure (SMILES): CCCCCCCCCCCNc1nc(NCCN(CC)CC)nc(SCCCCCCCCC)n1 [S9N11 D7]
- Absolute DNA transfection efficiency in HEK293 cells: 15.7%

Structure (SMILES): CCCCCCCCCCCNc1nc(NCCCN2CCOCC2)nc(SCCCCCCCCC)n1 [S9N11 D8]
- Absolute DNA transfection efficiency in HEK293 cells: 26.8%

Structure (SMILES): CCCCCCCCCCCNc1nc(NCCCN2CCN(C)CC2)nc(SCCCCCCCCC)n1 [S9N11 D9]
- Absolute DNA transfection efficiency in HEK293 cells: 49.3%

Structure (SMILES): CCCCCCCCCCCNc1nc(NCC2CCN(C)CC2)nc(SCCCCCCCCC)n1 [S9N11 D10]
- Absolute DNA transfection efficiency in HEK293 cells: 42.5%

Structure (SMILES): CCCCCCCCCCCCNc1nc(NCCN(C)C)nc(SCCCCCCCCC)n1 [S9N12 D1]
- Absolute DNA transfection efficiency in HEK293 cells: 39.3%

Structure (SMILES): CCCCCCCCCCCCNc1nc(NCCN2CCOCC2)nc(SCCCCCCCCC)n1 [S9N12 D2]
- Absolute DNA transfection efficiency in HEK293 cells: 13.0%

Structure (SMILES): CCCCCCCCCCCCNc1nc(NCCN2CCCC2)nc(SCCCCCCCCC)n1 [S9N12 D3]
- Absolute DNA transfection efficiency in HEK293 cells: 47.3%

Structure (SMILES): CCCCCCCCCCCCNc1nc(NCCN2CCCCC2)nc(SCCCCCCCCC)n1 [S9N12 D4]
- Absolute DNA transfection efficiency in HEK293 cells: 8.0%

Structure (SMILES): CCCCCCCCCCCCNc1nc(NCCN2CCN(C)CC2)nc(SCCCCCCCCC)n1 [S9N12 D5]
- Absolute DNA transfection efficiency in HEK293 cells: 48.2%

Structure (SMILES): CCCCCCCCCCCCNc1nc(NCCCN(C)C)nc(SCCCCCCCCC)n1 [S9N12 D6]
- Absolute DNA transfection efficiency in HEK293 cells: 70.5%

Structure (SMILES): CCCCCCCCCCCCNc1nc(NCCN(CC)CC)nc(SCCCCCCCCC)n1 [S9N12 D7]
- Absolute DNA transfection efficiency in HEK293 cells: 12.4%

Structure (SMILES): CCCCCCCCCCCCNc1nc(NCCCN2CCOCC2)nc(SCCCCCCCCC)n1 [S9N12 D8]
- Absolute DNA transfection efficiency in HEK293 cells: 13.6%

Structure (SMILES): CCCCCCCCCCCCNc1nc(NCCCN2CCN(C)CC2)nc(SCCCCCCCCC)n1 [S9N12 D9]
- Absolute DNA transfection efficiency in HEK293 cells: 28.8%

Structure (SMILES): CCCCCCCCCCCCNc1nc(NCC2CCN(C)CC2)nc(SCCCCCCCCC)n1 [S9N12 D10]
- Absolute DNA transfection efficiency in HEK293 cells: 25.8%

Structure (SMILES): CCCCCCCCCCCCCNc1nc(NCCN(C)C)nc(SCCCCCCCCC)n1 [S9N13 D1]
- Absolute DNA transfection efficiency in HEK293 cells: 25.0%

Structure (SMILES): CCCCCCCCCCCCCNc1nc(NCCN2CCOCC2)nc(SCCCCCCCCC)n1 [S9N13 D2]
- Absolute DNA transfection efficiency in HEK293 cells: 11.1%

Structure (SMILES): CCCCCCCCCCCCCNc1nc(NCCN2CCCC2)nc(SCCCCCCCCC)n1 [S9N13 D3]
- Absolute DNA transfection efficiency in HEK293 cells: 31.6%

Structure (SMILES): CCCCCCCCCCCCCNc1nc(NCCN2CCCCC2)nc(SCCCCCCCCC)n1 [S9N13 D4]
- Absolute DNA transfection efficiency in HEK293 cells: 6.7%

Structure (SMILES): CCCCCCCCCCCCCNc1nc(NCCN2CCN(C)CC2)nc(SCCCCCCCCC)n1 [S9N13 D5]
- Absolute DNA transfection efficiency in HEK293 cells: 27.9%

Structure (SMILES): CCCCCCCCCCCCCNc1nc(NCCCN(C)C)nc(SCCCCCCCCC)n1 [S9N13 D6]
- Absolute DNA transfection efficiency in HEK293 cells: 31.8%

Structure (SMILES): CCCCCCCCCCCCCNc1nc(NCCN(CC)CC)nc(SCCCCCCCCC)n1 [S9N13 D7]
- Absolute DNA transfection efficiency in HEK293 cells: 6.5%

Structure (SMILES): CCCCCCCCCCCCCNc1nc(NCCCN2CCOCC2)nc(SCCCCCCCCC)n1 [S9N13 D8]
- Absolute DNA transfection efficiency in HEK293 cells: 11.3%

Structure (SMILES): CCCCCCCCCCCCCNc1nc(NCCCN2CCN(C)CC2)nc(SCCCCCCCCC)n1 [S9N13 D9]
- Absolute DNA transfection efficiency in HEK293 cells: 19.9%

Structure (SMILES): CCCCCCCCCCCCCNc1nc(NCC2CCN(C)CC2)nc(SCCCCCCCCC)n1 [S9N13 D10]
- Absolute DNA transfection efficiency in HEK293 cells: 29.4%

Structure (SMILES): CCCCCCCCCCCCCCCNc1nc(NCCN(C)C)nc(SCCCCCCCCC)n1 [S9N15 D1]
- Absolute DNA transfection efficiency in HEK293 cells: 29.8%

Structure (SMILES): CCCCCCCCCCCCCCCNc1nc(NCCN2CCOCC2)nc(SCCCCCCCCC)n1 [S9N15 D2]
- Absolute DNA transfection efficiency in HEK293 cells: 7.3%

Structure (SMILES): CCCCCCCCCCCCCCCNc1nc(NCCN2CCCC2)nc(SCCCCCCCCC)n1 [S9N15 D3]
- Absolute DNA transfection efficiency in HEK293 cells: 22.7%

Structure (SMILES): CCCCCCCCCCCCCCCNc1nc(NCCN2CCCCC2)nc(SCCCCCCCCC)n1 [S9N15 D4]
- Absolute DNA transfection efficiency in HEK293 cells: 4.2%

Structure (SMILES): CCCCCCCCCCCCCCCNc1nc(NCCN2CCN(C)CC2)nc(SCCCCCCCCC)n1 [S9N15 D5]
- Absolute DNA transfection efficiency in HEK293 cells: 16.1%

Structure (SMILES): CCCCCCCCCCCCCCCNc1nc(NCCCN(C)C)nc(SCCCCCCCCC)n1 [S9N15 D6]
- Absolute DNA transfection efficiency in HEK293 cells: 13.4%

Structure (SMILES): CCCCCCCCCCCCCCCNc1nc(NCCN(CC)CC)nc(SCCCCCCCCC)n1 [S9N15 D7]
- Absolute DNA transfection efficiency in HEK293 cells: 4.6%

Structure (SMILES): CCCCCCCCCCCCCCCNc1nc(NCCCN2CCOCC2)nc(SCCCCCCCCC)n1 [S9N15 D8]
- Absolute DNA transfection efficiency in HEK293 cells: 5.3%

Structure (SMILES): CCCCCCCCCCCCCCCNc1nc(NCCCN2CCN(C)CC2)nc(SCCCCCCCCC)n1 [S9N15 D9]
- Absolute DNA transfection efficiency in HEK293 cells: 10.9%

Structure (SMILES): CCCCCCCCCCCCCCCNc1nc(NCC2CCN(C)CC2)nc(SCCCCCCCCC)n1 [S9N15 D10]
- Absolute DNA transfection efficiency in HEK293 cells: 19.0%

Structure (SMILES): CCCCCCCCCCCCCCCCNc1nc(NCCN(C)C)nc(SCCCCCCCCC)n1 [S9N16 D1]
- Absolute DNA transfection efficiency in HEK293 cells: 19.2%

Structure (SMILES): CCCCCCCCCCCCCCCCNc1nc(NCCN2CCOCC2)nc(SCCCCCCCCC)n1 [S9N16 D2]
- Absolute DNA transfection efficiency in HEK293 cells: 23.5%

Structure (SMILES): CCCCCCCCCCCCCCCCNc1nc(NCCN2CCCC2)nc(SCCCCCCCCC)n1 [S9N16 D3]
- Absolute DNA transfection efficiency in HEK293 cells: 31.3%

Structure (SMILES): CCCCCCCCCCCCCCCCNc1nc(NCCN2CCCCC2)nc(SCCCCCCCCC)n1 [S9N16 D4]
- Absolute DNA transfection efficiency in HEK293 cells: 8.1%

Structure (SMILES): CCCCCCCCCCCCCCCCNc1nc(NCCN2CCN(C)CC2)nc(SCCCCCCCCC)n1 [S9N16 D5]
- Absolute DNA transfection efficiency in HEK293 cells: 21.7%

Structure (SMILES): CCCCCCCCCCCCCCCCNc1nc(NCCCN(C)C)nc(SCCCCCCCCC)n1 [S9N16 D6]
- Absolute DNA transfection efficiency in HEK293 cells: 29.7%

Structure (SMILES): CCCCCCCCCCCCCCCCNc1nc(NCCN(CC)CC)nc(SCCCCCCCCC)n1 [S9N16 D7]
- Absolute DNA transfection efficiency in HEK293 cells: 6.4%

Structure (SMILES): CCCCCCCCCCCCCCCCNc1nc(NCCCN2CCOCC2)nc(SCCCCCCCCC)n1 [S9N16 D8]
- Absolute DNA transfection efficiency in HEK293 cells: 18.4%

Structure (SMILES): CCCCCCCCCCCCCCCCNc1nc(NCCCN2CCN(C)CC2)nc(SCCCCCCCCC)n1 [S9N16 D9]
- Absolute DNA transfection efficiency in HEK293 cells: 20.3%

Structure (SMILES): CCCCCCCCCCCCCCCCNc1nc(NCC2CCN(C)CC2)nc(SCCCCCCCCC)n1 [S9N16 D10]
- Absolute DNA transfection efficiency in HEK293 cells: 21.8%

Structure (SMILES): CCCCCCCCCCCCCCCCCCNc1nc(NCCN(C)C)nc(SCCCCCCCCC)n1 [S9N18 D1]
- Absolute DNA transfection efficiency in HEK293 cells: 24.2%

Structure (SMILES): CCCCCCCCCCCCCCCCCCNc1nc(NCCN2CCOCC2)nc(SCCCCCCCCC)n1 [S9N18 D2]
- Absolute DNA transfection efficiency in HEK293 cells: 10.2%

Structure (SMILES): CCCCCCCCCCCCCCCCCCNc1nc(NCCN2CCCC2)nc(SCCCCCCCCC)n1 [S9N18 D3]
- Absolute DNA transfection efficiency in HEK293 cells: 33.8%

Structure (SMILES): CCCCCCCCCCCCCCCCCCNc1nc(NCCN2CCCCC2)nc(SCCCCCCCCC)n1 [S9N18 D4]
- Absolute DNA transfection efficiency in HEK293 cells: 9.0%

Structure (SMILES): CCCCCCCCCCCCCCCCCCNc1nc(NCCN2CCN(C)CC2)nc(SCCCCCCCCC)n1 [S9N18 D5]
- Absolute DNA transfection efficiency in HEK293 cells: 22.9%

Structure (SMILES): CCCCCCCCCCCCCCCCCCNc1nc(NCCCN(C)C)nc(SCCCCCCCCC)n1 [S9N18 D6]
- Absolute DNA transfection efficiency in HEK293 cells: 47.5%

Structure (SMILES): CCCCCCCCCCCCCCCCCCNc1nc(NCCN(CC)CC)nc(SCCCCCCCCC)n1 [S9N18 D7]
- Absolute DNA transfection efficiency in HEK293 cells: 6.0%

Structure (SMILES): CCCCCCCCCCCCCCCCCCNc1nc(NCCCN2CCOCC2)nc(SCCCCCCCCC)n1 [S9N18 D8]
- Absolute DNA transfection efficiency in HEK293 cells: 26.1%

Structure (SMILES): CCCCCCCCCCCCCCCCCCNc1nc(NCCCN2CCN(C)CC2)nc(SCCCCCCCCC)n1 [S9N18 D9]
- Absolute DNA transfection efficiency in HEK293 cells: 15.8%

Structure (SMILES): CCCCCCCCCCCCCCCCCCNc1nc(NCC2CCN(C)CC2)nc(SCCCCCCCCC)n1 [S9N18 D10]
- Absolute DNA transfection efficiency in HEK293 cells: 11.2%

Structure (SMILES): CCCCCCCCCCCCN(CCCCCCCCCCCC)c1nc(NCCN(C)C)nc(SCCCCCCCCC)n1 [S9^2N12 D1]
- Absolute DNA transfection efficiency in HEK293 cells: 0.3%

Structure (SMILES): CCCCCCCCCCCCN(CCCCCCCCCCCC)c1nc(NCCN2CCOCC2)nc(SCCCCCCCCC)n1 [S9^2N12 D2]
- Absolute DNA transfection efficiency in HEK293 cells: 0.0%

Structure (SMILES): CCCCCCCCCCCCN(CCCCCCCCCCCC)c1nc(NCCN2CCCC2)nc(SCCCCCCCCC)n1 [S9^2N12 D3]
- Absolute DNA transfection efficiency in HEK293 cells: 0.0%

Structure (SMILES): CCCCCCCCCCCCN(CCCCCCCCCCCC)c1nc(NCCN2CCCCC2)nc(SCCCCCCCCC)n1 [S9^2N12 D4]
- Absolute DNA transfection efficiency in HEK293 cells: 0.0%
